For 14 compounds, Ki results are on record in ChEMBL document CHEMBL1150979, “DERIVATIVES OF 4-AMINO-PYRIDINE AS SELECTIVE THROMBIN INHIBITORS” (Bioorg Med Chem Lett, 1997).

In general, Ki refers to a measure of affinity in units of concentration, obtained from inhibition or displacement. Lower therefore signals higher affinity.

For one assay, the target named is Plasminogen (Homo sapiens, UniProt P00747). Nature of the assay: Tested for the Inhibition of the catalytic activity of human plasmin at 25 degree C and pH 7.5.
Sequence of Plasminogen (P00747 97-580 limits assumed): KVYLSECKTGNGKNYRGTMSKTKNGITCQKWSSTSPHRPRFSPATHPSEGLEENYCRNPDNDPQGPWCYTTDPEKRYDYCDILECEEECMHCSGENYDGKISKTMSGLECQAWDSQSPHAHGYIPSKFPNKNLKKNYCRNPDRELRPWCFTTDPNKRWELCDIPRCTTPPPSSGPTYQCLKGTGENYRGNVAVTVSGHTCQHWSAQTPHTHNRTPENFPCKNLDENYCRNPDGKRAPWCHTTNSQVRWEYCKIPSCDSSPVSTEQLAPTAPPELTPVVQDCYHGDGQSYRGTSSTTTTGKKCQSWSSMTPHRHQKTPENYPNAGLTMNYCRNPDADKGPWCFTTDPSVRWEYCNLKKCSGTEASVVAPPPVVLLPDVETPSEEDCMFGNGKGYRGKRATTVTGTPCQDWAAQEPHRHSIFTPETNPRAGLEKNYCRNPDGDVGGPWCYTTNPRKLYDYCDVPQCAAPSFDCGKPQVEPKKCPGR
Sequence of Plasminogen (P00747 581-810 limits assumed): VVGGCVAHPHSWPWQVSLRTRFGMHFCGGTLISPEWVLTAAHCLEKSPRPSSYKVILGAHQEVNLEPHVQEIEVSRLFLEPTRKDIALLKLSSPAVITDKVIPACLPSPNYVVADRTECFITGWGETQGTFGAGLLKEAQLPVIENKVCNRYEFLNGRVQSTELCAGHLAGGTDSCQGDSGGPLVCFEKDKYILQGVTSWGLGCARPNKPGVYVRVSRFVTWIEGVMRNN
The target in the next assay is T1, Serine protease 1 (Bos taurus, UniProt P00760).
T1 sequence (P00760 whole entry): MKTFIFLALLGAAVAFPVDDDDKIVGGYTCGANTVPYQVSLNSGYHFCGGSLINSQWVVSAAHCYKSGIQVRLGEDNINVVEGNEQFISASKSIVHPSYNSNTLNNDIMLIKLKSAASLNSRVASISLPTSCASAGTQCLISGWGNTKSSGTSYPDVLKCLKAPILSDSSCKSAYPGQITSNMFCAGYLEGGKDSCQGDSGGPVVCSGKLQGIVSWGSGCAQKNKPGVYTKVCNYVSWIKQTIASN
Nature of the assay: Tested for the Inhibition of the catalytic activity of bovine trypsin at 25 degree C and pH 7.5.

For another assay, the target named is Prothrombin (Homo sapiens, UniProt P00734).

Description for Prothrombin: Tested for the Inhibition of the catalytic activity of human Thrombin at 25 degree C and pH 7.5.

`O=C(CNS(=O)(=O)c1ccc2ccccc2c1)N[C@@H](CCNc1ccncc1)C(=O)N1CCCCC1`: the Ki on Plasminogen is over 500 µM; on Serine protease 1, over 500 µM; at Prothrombin, 300 µM.

In the case of `CN(c1cccc(OCCNc2ccncc2)c1)S(=O)(=O)c1ccccc1`, the Ki on Plasminogen was over 500 µM; at Serine protease 1 it was over 500 µM; at Prothrombin it was 0.07 µM.

For the compound `O=S(=O)(Nc1cccc(OCCNc2ccncc2)c1)c1ccc(Cl)cc1`, the Ki on Plasminogen was over 500 µM; on Serine protease 1, over 500 µM; on Prothrombin, 0.7 µM.

Turning to `O=C(CNS(=O)(=O)c1ccccc1)N[C@H](CCNc1ccncc1)C(=O)N1CCCCC1`, the figures for the Ki on Plasminogen, at Serine protease 1 and at Prothrombin were over 500 µM, over 500 µM and 10 µM, respectively.

For `OCCNc1ccncc1`, the Ki at Plasminogen, at Serine protease 1 and at Prothrombin was over 500 µM in each case.

With `O=C(CNS(=O)(=O)c1ccc(Cl)cc1)N[C@H](CCNc1ccncc1)C(=O)N1CCCCC1`, the Ki was over 500 µM on Plasminogen, over 500 µM on Serine protease 1 and 2 µM on Prothrombin.

Turning to `O=C(CNS(=O)(=O)c1ccc2ccccc2c1)N[C@H](CCNc1ccncc1)C(=O)N1CCCCC1`, the inhibition constant Ki is over 500 µM at Plasminogen, over 500 µM at Serine protease 1 and 0.2 µM on Prothrombin.

For `O=S(=O)(Nc1cccc(OCCNc2ccncc2)c1)c1ccccc1`, the Ki was over 500 µM at Plasminogen, over 500 µM on Serine protease 1 and 0.3 µM on Prothrombin.

On to `N=C(N)c1ccc(COc2cccc(CCNS(=O)(=O)c3ccc(Cl)cc3)c2)cc1`, for which the Ki on Plasminogen turned out to be 34 µM; on Serine protease 1, 1.7 µM; at Prothrombin it was 1.5 µM.

Take `Cc1cccc(OCCNc2ccncc2)c1`: the figures for the Ki on Plasminogen, on Serine protease 1 and at Prothrombin were over 500 µM, over 500 µM and 30 µM, respectively.

Turning to `O=S(=O)(NCCc1cccc(OCCNc2ccncc2)c1)c1ccc(Cl)cc1`, the figures for the Ki on Plasminogen, on Serine protease 1 and on Prothrombin were over 500 µM, over 500 µM and 2.8 µM, respectively.

`c1ccc(OCCNc2ccncc2)cc1`: the Ki on Plasminogen was over 500 µM; on Serine protease 1 it was over 500 µM; at Prothrombin, 120 µM.

Turning to `Nc1ccncc1` [DALFAMPRIDINE], the Ki at Plasminogen, at Serine protease 1 and on Prothrombin was over 2000 µM each time.

Turning to `O=S(=O)(Nc1cccc(OCCNc2ccncc2)c1)c1ccc2ccccc2c1`, the Ki on Plasminogen was over 500 µM; at Serine protease 1, over 500 µM; at Prothrombin, 7 µM.
